Data on one compound can be found in publication PMC3705412, “PTP1B Inhibitory and Anti-Inflammatory Effects of Secondary Metabolites Isolated from the Marine-Derived Fungus Penicillium sp. JF-55” (Marine Drugs, 2013).

The structures appear in SMILES notation.

For experiment [1], the target named is T1, PTP1B (human, recombinant) (Homo sapiens, UniProt P18031).
T1 construct: purchased BIOMOL Research Laboratories, Inc
T1 sequence (P18031 1-435): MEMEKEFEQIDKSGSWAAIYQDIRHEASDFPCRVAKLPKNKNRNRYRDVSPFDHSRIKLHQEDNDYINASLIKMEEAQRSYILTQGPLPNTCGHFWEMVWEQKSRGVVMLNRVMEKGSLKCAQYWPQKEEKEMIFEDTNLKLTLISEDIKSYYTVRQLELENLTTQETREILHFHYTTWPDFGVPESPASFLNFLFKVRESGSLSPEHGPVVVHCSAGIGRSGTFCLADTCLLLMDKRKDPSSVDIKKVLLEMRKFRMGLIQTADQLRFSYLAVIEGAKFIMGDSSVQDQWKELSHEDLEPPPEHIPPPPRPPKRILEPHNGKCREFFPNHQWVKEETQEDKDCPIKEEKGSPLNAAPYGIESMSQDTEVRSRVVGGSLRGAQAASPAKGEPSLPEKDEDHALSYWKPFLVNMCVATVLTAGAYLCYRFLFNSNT
The experiment in a line: PTP1B assay (pNPP hydrolysis). The format is biochemical. As to the method: PTP1B (human, recombinant) was purchased from BIOMOL Research Laboratories, Inc. Enzyme activity was measured in a reaction mixture containing 2 mM p-nitrophenyl phosphate (pNPP) in 50 mM citrate, pH 6.0 (composition: 0.1 M NaCl, 1 mM EDTA, and 1 mM dithiothreitol (DTT)). The reaction mixture was placed in an incubator maintained at 30 °C for 30 min, and the reaction was terminated by the addition of 1 N NaOH. The amount of p-nitrophenol produced was estimated by measuring the increase in absorbance at 405 nm. The nonenzymatic hydrolysis of 2 mM pNPP was corrected by measuring the increase in absorbance at 405 nm in the absence of PTP1B enzyme. For the kinetic analysis, the reaction mixture consisted of different concentrations of pNPP as a PTP1B substrate in the absence or presence of compound 1, and assays were performed as described above. The Michaelis-Menten constant (Km) and maximum velocity (Vmax) of PTP1B were determined by the Lineweaver-Burk plot using a GraphPad Prism® 4 program (GraphPad Software Inc., San Diego, CA, USA).

Experiment [2] concerns COX-2. Description: Western blotting of COX-2 protein expression in LPS-stimulated macrophages. It is filed as cell-based, murine (C57BL/6 mice). Conditions: pre-treatment 12 h, LPS 1 μg/mL 18 h. As to the method:
(§1) Figure 3 The effects of penstyrylpyrone (1) (A), anhydrofulvic acid (2) (B), and citromycetin (3) (C) on the protein expression of iNOS and COX-2 in murine peritoneal macrophages stimulated with LPS. Murine peritoneal macrophages were pre-treated for 12 h at the indicated compound concentrations and stimulated for 18 h with LPS (1 μg/mL). Western blotting analysis was performed, and the representative blots of three independent experiments are shown.
(§2) C57BL/6 mice were purchased from Orient Bio Co. (Sungnam, Kyung-Kido, Korea). TG-elicited peritoneal macrophages were harvested four days after intraperitoneal (i.p.) injection of 3 mL of TG [37]. Peritoneal lavage was performed using 8 mL of Hanks’ Balanced Salt Solution containing 10 U/mL heparin. The cells were distributed in Roswell Park Memorial Institute medium (RPMI) supplemented with 10% heat-inactivated FBS, in 6-well tissue culture plates (5 × 10^6 cells/mL).
(§3) Western blotting analysis was performed by lysing the cells in 20 mM Tris-HCl buffer (pH 7.4) containing a protease inhibitor mixture (0.1 mM PMSF, 5 mg/mL aprotinin, 5 mg/mL pepstatin A, and 1 mg/mL chymostatin). The protein concentration was determined using a Lowry protein assay kit (P5626; Sigma Chemical Co., St. Louis, MO, USA). […]
For orientation: In western blotting, separated proteins are transferred to a membrane and probed.

Experiment [3] deals with iNOS. The experiment in a line: Western blotting of iNOS protein expression in LPS-stimulated macrophages. It is filed as cell-based, murine (C57BL/6 mice). Conditions: pre-treatment 12 h, LPS 1 μg/mL 18 h. As to the method:
as §1, §2, §3

For experiment [4], the system named is IκB-α. Description: Western blotting of IκB-α phosphorylation and degradation in LPS-stimulated macrophages. The format is cell-based, murine (C57BL/6 mice). Conditions: pre-treatment 12 h, 5 to 40 μM, LPS 1 μg/mL 1 h. The protocol:
Figure 5 The effects of penstyrylpyrone (1) on the protein expression level of IκB-α phosphorylation, degradation of IκB-α (A), NF-κB translocation (B), and NF-κB DNA binding activity (C) in murine peritoneal macrophages. Murine peritoneal macrophages were pre-treated for 12 h at the indicated concentrations of penstyrylpyrone (1), and stimulated for 1 h with LPS (1 μg/mL). Western blotting analysis of IκB-α and p-IκB-α in the cytoplasm and NF-κB in the nucleus (A, B) were performed. A commercially available NF-κB ELISA (Active Motif) was used to test the nuclear extracts and to determine the degree of NF-κB binding (C). […]
Murine peritoneal macrophages were homogenized (1:20, w:v) in PER-Mammalian Protein Extraction buffer (Pierce Biotechnology, Rockford, IL, USA) containing freshly added protease inhibitor cocktail I (EMD Biosciences, San Diego, CA, USA) and 1 mM phenylmethylsulfonyl fluoride (PMSF). […] The protein concentration was determined using the bicinchoninic acid (BCA) protein assay kit.
as §3

Experiment [5] deals with HO-1. The experiment in a line: Western blotting of HO-1 protein expression in macrophages. The format is cell-based, murine (C57BL/6 mice). As to the method: Figure 6 The effects of penstyrylpyrone (1) on the protein expression of HO-1 in murine peritoneal macrophages. Murine peritoneal macrophages were incubated for 12 h with the indicated concentrations of penstyrylpyrone (1). […] Representative blots of three independent experiments are shown. The data represent the mean ± SD of three experiments. * p < 0.05 compared with the control group.
as §2
Western blotting analysis was performed by lysing the cells in 20 mM Tris-HCl buffer (pH 7.4) containing a protease inhibitor mixture (0.1 mM PMSF, 5 mg/mL aprotinin, 5 mg/mL pepstatin A, and 1 mg/mL chymostatin). The protein concentration was determined using a Lowry protein assay kit (P5626; Sigma Chemical Co., St. Louis, MO, USA). An equal amount of protein for each sample was resolved using 12% sodium dodecyl sulfate-polyacrylamide gel electrophoresis (SDS-PAGE) and then electrophoretically transferred onto a Hybond enhanced chemiluminescence (ECL) nitrocellulose membrane (Bio-Rad, Hercules, CA, USA). The membrane was blocked with 5% skimmed milk and sequentially incubated with primary antibody (Santa Cruz Biotechnology, Santa Cruz, CA, USA) and horseradish peroxidase-conjugated secondary antibody followed by ECL detection (Amersham Pharmacia Biotech, Piscataway, NJ, USA).

In the case of `COc1cc(/C=C/c2ccccc2)oc(=O)c1C` [Penstyrylpyrone (1), penstyrylpyrone], the IC50 in experiment [1] (2 mM pNPP, pH 6.0, 30 °C, 30 min, read-out: PTP1B inhibitory activity IC50) is 5.28 µM. For the same compound, the “Mode of PTP1B inhibition (Lineweaver-Burk, non-linear regression)” value in experiment [1] (different concentrations of pNPP) is reported as “competitive”. In experiment [2], the COX-2 expression result is “decreased”. For the same compound, the iNOS expression entry in experiment [3] is “decreased”. Further, the “LPS-induced phosphorylation and degradation of IκB-α” value in experiment [4] is given as “markedly inhibited”. In experiment [5] (40 μM), the “Time at which HO-1 protein expression began to increase” value was found to be 6 h and the “Time of maximum level of HO-1 protein expression” value turned out to be 18 h. In addition, the HO-1 protein expression entry in experiment [5] (5–40 μM for 12 h) was “concentration-dependent increase”. In addition, in experiment [5] (12 h), the “Concentration giving a considerable increase in HO-1 expression” value was “above 10 μM”.

What is called IC50 is the concentration that gives 50% inhibition.
